According to ChEMBL document CHEMBL1201862, “PubChem BioAssay data set” (2004):
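Cultured in 96-well plates, cells were exposed to test compound for 48 hours across five concentrations. GI50 = concentration required for 50% inhibition of growth.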 Active and inactive are the calls of the source. No stated cut-off is given here; in the data, active = GI50 up to about 1.1 µM and inactive = higher.

Columns and labels:
Assay in all cases: NCI anticancer screen, dose series, 48 h
BT-549 = tested on: BT-549
UO-31 = tested on: UO-31
SK-MEL-5 = tested on: SK-MEL-5
M14 = tested on: M14
A549 = tested on: A549
DU-145 = tested on: DU-145
SN12C = tested on: SN12C
HL-60 = tested on: HL-60
SR = tested on: SR
UACC-62 = tested on: UACC-62
T47D = tested on: T47D
IGROV-1 = tested on: IGROV-1
KM12 = tested on: KM12
NCI/ADR-RES = tested on: NCI/ADR-RES
MDA-MB-231 = tested on: MDA-MB-231
CAKI-1 = tested on: CAKI-1
NCI-H226 = tested on: NCI-H226
MDA-MB-435 = tested on: MDA-MB-435
Hs-578T = tested on: Hs-578T
UACC-257 = tested on: UACC-257

Measured: GI50

Cn1c(=O)c2nc3nnc(C#N)c(N)n3c2n(C)c1=O
inactive: BT-549 > 100 µM | UO-31 50.6 µM | SK-MEL-5 45.9 µM | M14 > 100 µM | A549 > 100 µM | DU-145 72.4 µM | SN12C > 100 µM | HL-60 > 100 µM | SR > 100 µM | UACC-62 > 100 µM | T47D 33 µM | IGROV-1 87.3 µM | KM12 > 100 µM | NCI/ADR-RES > 100 µM | MDA-MB-231 > 100 µM | CAKI-1 51.8 µM | NCI-H226 54.1 µM | MDA-MB-435 > 100 µM

O=P1(Oc2ccccc2)N(CCCl)CCN1c1ccccc1 (stereo not drawn)
inactive: UO-31 > 100 µM | SK-MEL-5 66.5 µM | M14 > 100 µM | A549 > 100 µM | DU-145 > 100 µM | SN12C > 100 µM | HL-60 > 100 µM | SR 79.3 µM | UACC-62 > 100 µM | Hs-578T > 100 µM | T47D > 100 µM | IGROV-1 42.7 µM | KM12 > 100 µM | NCI/ADR-RES 83.6 µM | MDA-MB-231 95.7 µM | CAKI-1 > 100 µM | NCI-H226 > 100 µM | UACC-257 79.6 µM | MDA-MB-435 > 100 µM

O=C1O/C(=C(/Br)c2ccc(Cl)c(Cl)c2)c2ccccc21
inactive: UO-31 > 10 µM | SK-MEL-5 > 10 µM | M14 > 10 µM | A549 > 10 µM | DU-145 > 10 µM | SN12C > 10 µM | HL-60 > 10 µM | SR > 10 µM | UACC-62 > 10 µM | Hs-578T > 10 µM | T47D > 10 µM | IGROV-1 > 10 µM | KM12 > 10 µM | NCI/ADR-RES > 10 µM | MDA-MB-231 > 10 µM | CAKI-1 > 10 µM | NCI-H226 > 10 µM | UACC-257 > 10 µM | MDA-MB-435 > 10 µM

O=C(NN1C(=O)c2ccccc2C1=O)c1ccccc1Nc1ccccc1C(=O)NN1C(=O)c2ccccc2C1=O
inactive: BT-549 > 100 µM | UO-31 > 100 µM | SK-MEL-5 > 100 µM | M14 > 100 µM | DU-145 > 100 µM | SN12C > 100 µM | HL-60 > 100 µM | SR > 100 µM | UACC-62 > 100 µM | IGROV-1 > 100 µM | KM12 > 100 µM | NCI/ADR-RES > 100 µM | MDA-MB-231 > 100 µM | CAKI-1 > 100 µM | NCI-H226 > 100 µM | UACC-257 > 100 µM | MDA-MB-435 > 100 µM

O=C(N/C(=C\NC1=NCCS1)C(=O)N1CSC[C@@H]1C(=O)O)c1ccccc1
inactive: UO-31 > 100 µM | SK-MEL-5 > 100 µM | M14 > 100 µM | A549 > 100 µM | DU-145 > 100 µM | SN12C > 100 µM | HL-60 > 100 µM | UACC-62 > 100 µM | T47D > 100 µM | KM12 > 100 µM | NCI/ADR-RES > 100 µM | MDA-MB-231 > 100 µM | CAKI-1 > 100 µM | NCI-H226 > 100 µM | UACC-257 > 100 µM | MDA-MB-435 > 100 µM

O=C1CN(/N=C/c2ccc(-c3ccc(F)cc3)o2)C(=O)N1
inactive: UO-31 75.2 µM | SK-MEL-5 26.4 µM | M14 75.3 µM | A549 52.2 µM | DU-145 > 100 µM | SN12C 91.2 µM | HL-60 55.6 µM | SR 24 µM | UACC-62 45.5 µM | Hs-578T 45.5 µM | T47D > 100 µM | IGROV-1 41.6 µM | KM12 33.1 µM | NCI/ADR-RES 25.9 µM | MDA-MB-231 > 100 µM | CAKI-1 58.6 µM | NCI-H226 32.2 µM | UACC-257 21.8 µM | MDA-MB-435 18.5 µM
